Experimental data: ChEMBL document CHEMBL1201862, “PubChem BioAssay data set” (2004)
The source made the active and inactive calls.

Key:
[1] = molecular target: Beta-2 adrenergic receptor (Homo sapiens, UniProt P07550); test: beta2AR agonists driving receptor internalization, dose response, cell-based, FAP fluorogen, flow cytometry, cherry pick 1 (AID 588763); type: functional
[2] = molecular target: T1, High affinity choline transporter 1 (Homo sapiens, UniProt Q9GZV3); test: CHT inhibitors, dose response, cell-based, 5-point CRC, membrane potential dye (AID 504840); type: functional
T1 sequence (Q9GZV3 whole entry): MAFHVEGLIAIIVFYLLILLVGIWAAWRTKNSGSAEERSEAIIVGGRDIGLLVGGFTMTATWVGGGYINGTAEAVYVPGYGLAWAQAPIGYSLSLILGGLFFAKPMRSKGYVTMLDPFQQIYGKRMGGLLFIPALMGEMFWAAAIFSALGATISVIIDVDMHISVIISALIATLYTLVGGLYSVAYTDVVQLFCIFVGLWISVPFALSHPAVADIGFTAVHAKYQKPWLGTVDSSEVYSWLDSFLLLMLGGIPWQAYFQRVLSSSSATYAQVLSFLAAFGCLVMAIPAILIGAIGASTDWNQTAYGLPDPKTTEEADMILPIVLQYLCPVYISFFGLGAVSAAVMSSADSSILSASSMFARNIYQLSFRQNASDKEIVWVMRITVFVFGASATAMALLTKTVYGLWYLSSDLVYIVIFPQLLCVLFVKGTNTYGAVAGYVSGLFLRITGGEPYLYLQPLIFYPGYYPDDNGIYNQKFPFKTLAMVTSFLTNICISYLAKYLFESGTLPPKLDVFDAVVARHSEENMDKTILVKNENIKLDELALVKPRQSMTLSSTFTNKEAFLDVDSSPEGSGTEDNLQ

[3] = molecular target: T1, High affinity choline transporter 1; test: CHT inhibitors, dose response, cell-based, 10-point CRC, membrane potential dye (AID 588401); type: functional;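 also: membrane potential dye fluorescence of choline-evoked depolarization via CHT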
[4] = molecular target: T2, Mannose-6-phosphate isomerase (Homo sapiens, UniProt P34949); test: human PMI inhibitors, high substrate, primary screen, biochemical, fluorescence intensity, high mannose 6-phosphate (AID 1220)
T2 sequence (P34949 whole entry): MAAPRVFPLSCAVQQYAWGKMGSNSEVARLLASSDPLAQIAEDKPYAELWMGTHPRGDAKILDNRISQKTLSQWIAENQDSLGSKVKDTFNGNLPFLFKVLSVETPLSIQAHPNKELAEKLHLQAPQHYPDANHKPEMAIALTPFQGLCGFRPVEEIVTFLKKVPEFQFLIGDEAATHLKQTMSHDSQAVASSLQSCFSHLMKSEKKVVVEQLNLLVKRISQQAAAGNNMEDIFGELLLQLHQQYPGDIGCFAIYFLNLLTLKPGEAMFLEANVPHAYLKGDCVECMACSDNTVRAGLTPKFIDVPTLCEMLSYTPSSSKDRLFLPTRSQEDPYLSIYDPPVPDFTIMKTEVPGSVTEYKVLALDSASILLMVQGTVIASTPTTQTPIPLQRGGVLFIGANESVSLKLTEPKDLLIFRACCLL

BJ [5] = test: cytotoxicity toward BJ-TERT fibroblasts, dose response, cell-based, RAS-independent, luminescence (AID 1933); type: functional; details: Homo sapiens
[6] = cytotoxicity toward DRD oncogenic fibroblasts, dose response, cell-based, non-viral oncogenic, luminescence (AID 1934); type: functional; details: Homo sapiens
[7] = non-specific cell cytotoxicity, dose response, cytotoxicity control for PAX8 inhibitor project, plate reader, dry powder samples (AID 743021); type: functional, cell-based
BJ [8] = test: cells; type: functional, cell-based; details: Homo sapiens
BJ [9] = test: cytotoxicity toward BJ-TERT-LT-ST fibroblasts, dose response, cell-based, RAS-independent, luminescence (AID 1935); type: functional; details: Homo sapiens;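 also: BJ fibroblasts immortalized with TERT plus LT and ST oncogenes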
Paired box protein Pax-8 = Paired box protein Pax-8 (Homo sapiens, UniProt Q06710); test: inhibitors of PAX8-driven TPO luciferase reporter, dose response, RMG-I cells, cherry-pick (AID 687027); type: functional, cell-based;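 also: luciferase reporter driven by Pax8 target thyroperoxidase promoter measured by SteadyGlo luminescence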
Sequence of Paired box protein Pax-8 (Q06710 whole entry): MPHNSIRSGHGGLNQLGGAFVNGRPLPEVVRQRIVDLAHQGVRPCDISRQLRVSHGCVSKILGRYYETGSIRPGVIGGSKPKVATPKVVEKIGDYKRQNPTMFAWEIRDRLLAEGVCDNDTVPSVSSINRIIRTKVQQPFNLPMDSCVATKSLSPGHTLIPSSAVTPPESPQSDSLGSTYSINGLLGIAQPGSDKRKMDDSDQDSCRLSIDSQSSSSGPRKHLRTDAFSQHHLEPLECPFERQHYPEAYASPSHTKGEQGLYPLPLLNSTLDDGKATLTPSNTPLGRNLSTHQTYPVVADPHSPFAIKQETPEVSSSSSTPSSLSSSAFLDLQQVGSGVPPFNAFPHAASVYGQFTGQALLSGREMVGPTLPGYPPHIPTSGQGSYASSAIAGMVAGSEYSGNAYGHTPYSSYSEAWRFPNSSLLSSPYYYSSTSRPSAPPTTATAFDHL

[10] = cytotoxicity in HEK-293T cells, dose response, cytotoxicity control for TCR NF-kB inhibitor project, luminescence, T-cell screen hits (AID 489026); type: functional, cell-based;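 also: cells exposed to compound about 14 hours before the viability readout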
[11] = Luminescence Cell-Based Dose Response HTS to Identify Inhibitors of 5'UTR Stem-Loop Driven Prion Protein mRNA Translation in H4 Neuroglioblastoma Cells. [Related pubchem assays: 1827 (Project Summary), 1813 (Primary HTS)]; type: functional
INS1 = test: beta cell apoptosis inhibitors, cytokine rescue, dose response, luminescence, retest (AID 449756); type: functional, cell-based; details: Rattus norvegicus;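 also: cell death triggered by IL-1 beta plus TNF-alpha plus IFN-gamma mixture; protective hits raise ATP signal compared with cytokine alone wells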
[12] = Luminescence Cell-Based Dose Retest to Confirm Inhibitors of Cancer Stem Cells. [Related pubchem assays (depositor defined):AID2717, AID2721]; type: functional; details: Homo sapiens
[13] = inhibitors of SNCA 5'UTR-driven reporter translation, confirmation, H4 neuroglioma cells, luminescence (AID 1988); type: functional, cell-based
[14] = inhibitors of firefly luciferase expression or activity, dose response, H4 neuroglioma cells, luminescence (AID 1990); type: functional, cell-based
[15] = inhibitors of clade B AD8 Env fusion, dose response, cell-based, cherry-pick (AID 652062); type: functional;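 also: luciferase signal from cell-cell fusion driven by HIV-1 clade B AD8 Env; potency is for inhibitors of fusion seen as a drop in luminescence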
[16] = inhibitors of HIV Env-driven cell fusion, dose response, cherry-pick (AID 652057); type: functional, cell-based
[17] = off-target signal loss in HeLa-CEM21 co-culture – HeLa F-luc CTL cells, cherry-picked, counter-screen for HIV-1 Env fusion inhibitor project, dose response (AID 652040); type: functional, cell-based;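 also: potency for signal decrease marking cytotoxic or nonspecific inhibition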
[18] = molecular target: T3, Heat shock factor protein 1 (Mus musculus, UniProt P38532); test: inhibition of MG132-induced HSE-luciferase signal, confirmation, cell-based, NIH3T3, luminescence, dose retest (AID 2382); type: functional;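 also: NIH3T3 fibroblasts with HSF1-driven luciferase reporter stressed by proteasome inhibitor MG132; luminescence from HSF1-driven luciferase expression after 8 hours of MG132 stress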
T3 sequence (P38532 whole entry): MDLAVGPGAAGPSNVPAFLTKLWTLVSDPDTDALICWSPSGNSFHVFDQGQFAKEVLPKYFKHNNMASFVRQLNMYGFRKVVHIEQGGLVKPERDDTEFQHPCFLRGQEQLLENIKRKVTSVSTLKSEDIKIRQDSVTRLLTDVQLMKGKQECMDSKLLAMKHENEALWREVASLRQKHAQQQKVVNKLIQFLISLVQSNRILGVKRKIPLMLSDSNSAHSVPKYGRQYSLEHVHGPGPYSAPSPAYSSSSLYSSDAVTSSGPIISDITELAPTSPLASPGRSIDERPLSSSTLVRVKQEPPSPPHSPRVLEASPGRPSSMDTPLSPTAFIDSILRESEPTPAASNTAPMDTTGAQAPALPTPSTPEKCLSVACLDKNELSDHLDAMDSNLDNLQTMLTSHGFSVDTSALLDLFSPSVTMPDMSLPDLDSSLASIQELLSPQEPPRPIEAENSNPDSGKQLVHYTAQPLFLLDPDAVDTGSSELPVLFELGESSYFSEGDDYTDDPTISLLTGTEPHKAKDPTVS

[19] = molecular target: T4, Calpain-2 catalytic subunit (Sus scrofa, UniProt P43367); test: pig calpain II inhibitor potency, dose response, biochemical, fluorogenic peptide substrate (AID 1420); type: functional
T4 sequence (P43367 whole entry): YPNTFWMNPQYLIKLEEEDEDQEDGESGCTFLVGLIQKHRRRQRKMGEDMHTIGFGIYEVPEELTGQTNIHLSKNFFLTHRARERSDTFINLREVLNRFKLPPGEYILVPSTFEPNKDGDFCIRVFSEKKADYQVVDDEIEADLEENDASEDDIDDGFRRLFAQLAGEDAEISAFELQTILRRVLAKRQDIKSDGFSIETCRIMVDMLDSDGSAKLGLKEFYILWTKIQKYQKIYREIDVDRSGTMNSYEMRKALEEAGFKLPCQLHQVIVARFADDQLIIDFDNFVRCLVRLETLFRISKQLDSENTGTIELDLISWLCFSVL

Sequence of Beta-2 adrenergic receptor (P07550 whole entry): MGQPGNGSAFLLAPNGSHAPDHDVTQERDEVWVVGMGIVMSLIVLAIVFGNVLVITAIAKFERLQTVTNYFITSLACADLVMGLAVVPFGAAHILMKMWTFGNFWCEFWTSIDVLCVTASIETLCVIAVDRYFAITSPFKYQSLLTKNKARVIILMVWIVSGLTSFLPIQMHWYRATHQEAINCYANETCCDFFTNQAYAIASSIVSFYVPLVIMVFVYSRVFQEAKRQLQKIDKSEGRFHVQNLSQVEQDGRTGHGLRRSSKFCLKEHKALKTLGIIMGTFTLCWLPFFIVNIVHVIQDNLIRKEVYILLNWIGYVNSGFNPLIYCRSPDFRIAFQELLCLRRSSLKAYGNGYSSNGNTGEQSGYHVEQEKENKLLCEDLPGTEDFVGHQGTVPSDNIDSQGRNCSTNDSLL

## COc1ccc([C@H]2/C=C\CN(Cc3ccc(N(C)C)cc3)[C@@H](C)C(=O)N2Cc2ccc(F)cc2)cc1
[1]
  EC50: 4.36 µM (active)

## Cn1c2c(c(=O)c3ccccc31)CCCC2
[2]
  IC50: 6.99 µM (active)
[3]
  IC50: 4.22 µM (active)

## COc1ccc(NC(=S)Nc2ccc3nccnc3c2)cc1
[4]
  IC50: > 50 µM (not active)

## COC(=O)Cn1ccc(N(C)C)c(C#N)c1=O
[2]
  IC50: 4.07 µM (active)
[3]
  IC50: 2.89 µM (active)

## COc1cccc(NC(=O)Nc2nc(-c3ccc(OC)c(OC)c3)cs2)c1
BJ [5]
  EC50: 5.89 µM (active)
[6]
  EC50: 5.56 µM (active)
[7]
  AC50: 12.3 µM (active)
BJ [8]
  EC50: 8.03 µM (active)
BJ [9]
  EC50: 9.04 µM (inconclusive)
Paired box protein Pax-8
  AC50: 7.88 µM (active)

## COc1ccc(C(=O)c2ccc(N(C)C)cc2)c(OC)c1
[10]
  IC50: > 80 µM (inactive)

## c1cn(C23CC4CC(CC(C4)C2)C3)cn1
[2]
  IC50: 7.43 µM (active)
[3]
  IC50: 3.57 µM (active)

## COc1ccc(/C=C/C(=O)c2ccc([N+](=O)[O-])o2)cc1OC
BJ [5]
  EC50: > 150 µM (not active)
[6]
  EC50: 2.58 µM (inconclusive)
[11]
  EC50: 10.5 µM (active)
INS1
  AC50: 3.94 µM (active)
BJ [8]
  EC50: > 150 µM (inconclusive)
[12]
  AC50: 2.09 µM (active)
BJ [9]
  EC50: 1.15 µM (inconclusive)
[13]
  EC50: > 120 µM (not active)
[14]
  EC50: 9.14 µM (active)

## Nc1cc(-c2ccccc2)nn1S(=O)(=O)c1ccc(F)cc1
[15]
  AC50: 3.99 µM (active)
[16]
  AC50: 59.6 µM (active)
[17]
  AC50: 3.4 µM (active)

## CCCCOc1cccc(C(=O)Nc2ccc(NC(=O)c3cccs3)cc2)c1
[18]
  EC50: 9.51 µM (active)
[1]
  EC50: 0.256 µM (active)

## COc1cc([C@@H]2c3cc4c(cc3[C@@H](OC)[C@H]3COC(=O)[C@H]23)OCO4)cc(OC)c1O
[10]
  IC50: > 80 µM (inactive)

## COCCCNc1ncnc2c1sc1nc(-c3ccco3)c3c(c12)CC(C)(C)OC3
[1]
  EC50: 0.0417 µM (active)

## CC(=O)Nc1cc(C(=O)OC(C(=O)c2ccccc2)c2ccccc2)ccc1C (centres undefined)
[19]
  IC50: > 50 µM (not active)
[1]
  EC50: 0.402 µM (active)

## COc1ccc(-c2ccc(C(=O)O)o2)c([N+](=O)[O-])c1
[4]
  IC50: > 50 µM (not active)
